Measurements published in US11090247B2, “Compositions for protecting the skin from heavy metals and formaldehyde” (FNG RESEARCH CO., LTD., priority 2016, dated 2021).

How the values were obtained:
[1] = Formaldehyde removing ability test (GC); details: 2.0% formaldehyde solution; for Area (mAU*min) 30 min: formaldehyde GC area after 30 min; for Area (mAU*min) 30 min / Area (mAU*min) 180 min: 3 molar equivalents, room temperature; for Area (mAU*min) 180 min: formaldehyde GC area after 180 min; for Area (mAU*min) Initial: formaldehyde GC area, initial state, 3 molar equivalents of compound
[2] = Removal test of heavy metals of active ingredients (pig skin, ICP-MS): Pb; details: contaminated pig skin
Experimental: (§1) (1) Preparation of Heavy Metal Contamination Sources and Pig Skin Samples
(§2) A pig was slaughtered, flayed and the bristle was shaved. The pig skin was cut to prepare 5*5 cm size of skin samples respectively.
(§3) The said skin samples were cleanly wiped with wet gauze, and then, added to 50 ml of methanol and extracted by shaking with ultrasonic for 60 min. 50 ml of methanol was further added and mixed. The pig skin samples were removed from the extracted solutions to prepare the test solutions.
(§4) The test solutions were analyzed for heavy metal components using an inductively coupled plasma mass spectrometer (ICP-MS, Xseries™ 2, Thermo Fisher Scientific, UK).

[3] = Removal test of heavy metals of active ingredients (pig skin, ICP-MS): Cd; details: contaminated pig skin
Experimental: as §1, §2, §3, §4

human skin = experiment: Skin irritation test of active ingredient (patch method, CTFA guidelines); assay type: in vivo; design: key to Degree of irritation: 0–0.1 none, 0.11–0.3 weak, 0.31–0.5 moderate, ≥0.51 strong irritation; details: 20 people, patch 24 hours; for Test result(number of subject) (+): (+): Apparent reddening than periphery; for Test result(number of subject) (++): (++): More reddened and swollen than periphery; for Test result(number of subject) (±): (±): slightly reddish than the periphery; for Test result(number of subject) (−): (−): No erythema or particularly no symptoms
Experimental: A total of 20 people (10 men and 10 women in their 20 s and 30 s) were tested for skin irritation using the patch method according to the guidelines of CTFA (The Cosmetic, Toiletry & Fragrance Association, Inc. Washington, D.C.).
A filter paper disk was placed in an 8 mm diameter, 10 panels of pin chamber.
After 24 hours, the pin chamber was removed, and skin conditions were visually observed.
[Criteria for Skin Irritation]
(−): No erythema or particularly no symptoms; (±): slightly reddish than the periphery; (+): Apparent reddening than periphery; (++): More reddened and swollen than periphery.
[Grade for Skin Irritation]
Degree of irritation 0-0.1: Grade I (unstimulated);
Degree of irritation 0.11-0.3: Grade II (weakly stimulated);
Degree of irritation 0.31-0.5: Grade III (moderately stimulated);
Degree of irritation 0.51 or more: Grade IV (strongly stimulated)

[4] = Removal test of heavy metals of active ingredients (pig skin, ICP-MS): Cu; details: contaminated pig skin
Experimental: as §1, §2, §3, §4

SMILES: O=C(O)c1ccc(N2CCCN(c3ccc(C(=O)O)cc3)CCN(c3ccc(C(=O)O)cc3)CCCN(c3ccc(C(=O)O)cc3)CC2)cc1 [Embodiment 10, 4,4′,4″,4′″-(1,4,8,11-tetraazacyclotetradecane-1,4,8,11-tetrayl)tetrabenzoic acid]
- Area (mAU*min) 30 min [1]: 0.171 mAU*min
- Area (mAU*min) 180 min [1]: 0 mAU*min
- Area (mAU*min) Initial [1]: 0.305 mAU*min
- Removal of Heavy metals Pb (%) ([2]; 0.1 wt % aqueous solution): 88.3%
- Removal of Heavy metals Pb (%) ([2]; 0.5 wt % aqueous solution): 90.5%
- Removal of Heavy metals Pb (%) ([2]; 1.0 wt % aqueous solution): 90.9%
- Removal of Heavy metals Cd (%) ([3]; 0.1 wt % aqueous solution): 85.7%
- Removal of Heavy metals Cd (%) ([3]; 0.5 wt % aqueous solution): 90.4%
- Removal of Heavy metals Cd (%) ([3]; 1.0 wt % aqueous solution): 91.1%
- Degree of irritation (human skin; 0.1 wt %): 0
- Grade (human skin; 0.1 wt %): I (Degree of irritation 0-0.1: Grade I (unstimulated))
- Test result(number of subject) (+) (human skin; 0.1 wt %): 0
- Test result(number of subject) (++) (human skin; 0.1 wt %): 0
- Test result(number of subject) (±) (human skin; 0.1 wt %): 0
- Test result(number of subject) (−) (human skin; 0.1 wt %): 20
- Degree of irritation (human skin; 0.5 wt %): 0
- Grade (human skin; 0.5 wt %): I (Degree of irritation 0-0.1: Grade I (unstimulated))
- Test result(number of subject) (+) (human skin; 0.5 wt %): 0
- Test result(number of subject) (++) (human skin; 0.5 wt %): 0
- Test result(number of subject) (±) (human skin; 0.5 wt %): 0
- Test result(number of subject) (−) (human skin; 0.5 wt %): 20
- Degree of irritation (human skin; 1.0 wt %): 0.05
- Grade (human skin; 1.0 wt %): I (Degree of irritation 0-0.1: Grade I (unstimulated))
- Test result(number of subject) (+) (human skin; 1.0 wt %): 0
- Test result(number of subject) (++) (human skin; 1.0 wt %): 0
- Test result(number of subject) (±) (human skin; 1.0 wt %): 1
- Test result(number of subject) (−) (human skin; 1.0 wt %): 19
- Removal of Heavy metals Cu (%) ([4]; 0.1 wt % aqueous solution): 94.1%
- Removal of Heavy metals Cu (%) ([4]; 0.5 wt % aqueous solution): 96.0%
- Removal of Heavy metals Cu (%) ([4]; 1.0 wt % aqueous solution): 96.5%

SMILES: O=C(O)c1cncc(N2CCCN(c3cncc(C(=O)O)c3)CCN(c3cncc(C(=O)O)c3)CCCN(c3cncc(C(=O)O)c3)CC2)c1 [Embodiment 11, 5,5′,5″,5′″-(1,4,8,11-tetraazacyclotetradecane-1,4,8,11-tetrayl)tetranicotinic acid]
- Area (mAU*min) 30 min [1]: 0.174 mAU*min
- Area (mAU*min) 180 min [1]: 0 mAU*min
- Area (mAU*min) Initial [1]: 0.305 mAU*min
- Removal of Heavy metals Pb (%) ([2]; 0.1 wt % aqueous solution): 87.9%
- Removal of Heavy metals Pb (%) ([2]; 0.5 wt % aqueous solution): 89.2%
- Removal of Heavy metals Pb (%) ([2]; 1.0 wt % aqueous solution): 91.2%
- Removal of Heavy metals Cd (%) ([3]; 0.1 wt % aqueous solution): 86.7%
- Removal of Heavy metals Cd (%) ([3]; 0.5 wt % aqueous solution): 88.9%
- Removal of Heavy metals Cd (%) ([3]; 1.0 wt % aqueous solution): 91.0%
- Degree of irritation (human skin; 0.1 wt %): 0
- Grade (human skin; 0.1 wt %): I (Degree of irritation 0-0.1: Grade I (unstimulated))
- Test result(number of subject) (+) (human skin; 0.1 wt %): 0
- Test result(number of subject) (++) (human skin; 0.1 wt %): 0
- Test result(number of subject) (±) (human skin; 0.1 wt %): 0
- Test result(number of subject) (−) (human skin; 0.1 wt %): 20
- Degree of irritation (human skin; 0.5 wt %): 0
- Grade (human skin; 0.5 wt %): I (Degree of irritation 0-0.1: Grade I (unstimulated))
- Test result(number of subject) (+) (human skin; 0.5 wt %): 0
- Test result(number of subject) (++) (human skin; 0.5 wt %): 0
- Test result(number of subject) (±) (human skin; 0.5 wt %): 0
- Test result(number of subject) (−) (human skin; 0.5 wt %): 20
- Degree of irritation (human skin; 1.0 wt %): 0.10
- Grade (human skin; 1.0 wt %): I (Degree of irritation 0-0.1: Grade I (unstimulated))
- Test result(number of subject) (+) (human skin; 1.0 wt %): 0
- Test result(number of subject) (++) (human skin; 1.0 wt %): 0
- Test result(number of subject) (±) (human skin; 1.0 wt %): 2
- Test result(number of subject) (−) (human skin; 1.0 wt %): 18
- Removal of Heavy metals Cu (%) ([4]; 0.1 wt % aqueous solution): 93.8%
- Removal of Heavy metals Cu (%) ([4]; 0.5 wt % aqueous solution): 96.0%
- Removal of Heavy metals Cu (%) ([4]; 1.0 wt % aqueous solution): 96.8%

SMILES: O=C(O)c1ccc(N2CCCN(c3ccc(C(=O)O)o3)CCN(c3ccc(C(=O)O)o3)CCCN(c3ccc(C(=O)O)o3)CC2)o1 [Embodiment 12, 5,5′,5″,5′″-(1,4,8,11-tetraazacyclotetradecane-1,4,8,11-tetrayl)tetrakis(furan-2-carboxylic acid)]
- Area (mAU*min) 30 min [1]: 0.170 mAU*min
- Area (mAU*min) 180 min [1]: 0 mAU*min
- Area (mAU*min) Initial [1]: 0.305 mAU*min
- Removal of Heavy metals Pb (%) ([2]; 0.1 wt % aqueous solution): 89.1%
- Removal of Heavy metals Pb (%) ([2]; 0.5 wt % aqueous solution): 90.9%
- Removal of Heavy metals Pb (%) ([2]; 1.0 wt % aqueous solution): 91.3%
- Removal of Heavy metals Cd (%) ([3]; 0.1 wt % aqueous solution): 90.1%
- Removal of Heavy metals Cd (%) ([3]; 0.5 wt % aqueous solution): 90.7%
- Removal of Heavy metals Cd (%) ([3]; 1.0 wt % aqueous solution): 90.9%
- Degree of irritation (human skin; 0.1 wt %): 0
- Grade (human skin; 0.1 wt %): I (Degree of irritation 0-0.1: Grade I (unstimulated))
- Test result(number of subject) (+) (human skin; 0.1 wt %): 0
- Test result(number of subject) (++) (human skin; 0.1 wt %): 0
- Test result(number of subject) (±) (human skin; 0.1 wt %): 0
- Test result(number of subject) (−) (human skin; 0.1 wt %): 20
- Degree of irritation (human skin; 0.5 wt %): 0
- Grade (human skin; 0.5 wt %): I (Degree of irritation 0-0.1: Grade I (unstimulated))
- Test result(number of subject) (+) (human skin; 0.5 wt %): 0
- Test result(number of subject) (++) (human skin; 0.5 wt %): 0
- Test result(number of subject) (±) (human skin; 0.5 wt %): 0
- Test result(number of subject) (−) (human skin; 0.5 wt %): 20
- Degree of irritation (human skin; 1.0 wt %): 0.05
- Grade (human skin; 1.0 wt %): I (Degree of irritation 0-0.1: Grade I (unstimulated))
- Test result(number of subject) (+) (human skin; 1.0 wt %): 0
- Test result(number of subject) (++) (human skin; 1.0 wt %): 0
- Test result(number of subject) (±) (human skin; 1.0 wt %): 1
- Test result(number of subject) (−) (human skin; 1.0 wt %): 19
- Removal of Heavy metals Cu (%) ([4]; 0.1 wt % aqueous solution): 94.5%
- Removal of Heavy metals Cu (%) ([4]; 0.5 wt % aqueous solution): 95.8%
- Removal of Heavy metals Cu (%) ([4]; 1.0 wt % aqueous solution): 96.3%

SMILES: NCCNCCNCCN [Trientine, Triethylenetetramine, reference compound]
- Area (mAU*min) 30 min [1]: 0.168 mAU*min
- Area (mAU*min) 180 min [1]: 0 mAU*min
- Area (mAU*min) Initial [1]: 0.305 mAU*min
- Removal of Heavy metals Pb (%) ([2]; 0.1 wt % aqueous solution): 89.7%
- Removal of Heavy metals Pb (%) ([2]; 0.5 wt % aqueous solution): 92.1%
- Removal of Heavy metals Pb (%) ([2]; 1.0 wt % aqueous solution): 92.3%
- Removal of Heavy metals Cd (%) ([3]; 0.1 wt % aqueous solution): 87.3%
- Removal of Heavy metals Cd (%) ([3]; 0.5 wt % aqueous solution): 92.4%
- Removal of Heavy metals Cd (%) ([3]; 1.0 wt % aqueous solution): 92.3%
- Degree of irritation (human skin; 0.1 wt %): 0
- Grade (human skin; 0.1 wt %): I (Degree of irritation 0-0.1: Grade I (unstimulated))
- Test result(number of subject) (+) (human skin; 0.1 wt %): 0
- Test result(number of subject) (++) (human skin; 0.1 wt %): 0
- Test result(number of subject) (±) (human skin; 0.1 wt %): 0
- Test result(number of subject) (−) (human skin; 0.1 wt %): 20
- Degree of irritation (human skin; 0.5 wt %): 0.05
- Grade (human skin; 0.5 wt %): I (Degree of irritation 0-0.1: Grade I (unstimulated))
- Test result(number of subject) (+) (human skin; 0.5 wt %): 0
- Test result(number of subject) (++) (human skin; 0.5 wt %): 0
- Test result(number of subject) (±) (human skin; 0.5 wt %): 1
- Test result(number of subject) (−) (human skin; 0.5 wt %): 19
- Degree of irritation (human skin; 1.0 wt %): 0.15
- Grade (human skin; 1.0 wt %): II (Degree of irritation 0.11-0.3: Grade II (weakly stimulated))
- Test result(number of subject) (+) (human skin; 1.0 wt %): 0
- Test result(number of subject) (++) (human skin; 1.0 wt %): 0
- Test result(number of subject) (±) (human skin; 1.0 wt %): 3
- Test result(number of subject) (−) (human skin; 1.0 wt %): 17
- Removal of Heavy metals Cu (%) ([4]; 0.1 wt % aqueous solution): 92.6%
- Removal of Heavy metals Cu (%) ([4]; 0.5 wt % aqueous solution): 95.4%
- Removal of Heavy metals Cu (%) ([4]; 1.0 wt % aqueous solution): 96.0%
